For data set [1], the system named is HIV-1 p24 antigen, H9 cells. The data set can be described thus: p24 antigen levels (ELISA) in chronically HIV-1 infected H9 cells. It counts as cell-based. To be noted: 48 hours, FIGS. 8 and 9. The method, then: 1. Dose-dependency of antiviral effect. Cells of the human T lymphocyte line H9, chronically and productively infected with the Lai (IIIb) strain of HIV-1, were harvested during logarithmic proliferation, extensively washed to remove viral antigens and infectious particles, and re-suspendedin serum-supplemented and antibiotic-containing RPMI 1640 medium at a density of 2×10^5 cells/ml. After incubation with increasing concentrations of mimosine or HK-1 for 48 hours, the cells were harvested, lysed, and used to determine the intracellular amount of the p24 antigen derived from the p55 Gag polyprotein, using a commercially available, p24-specific ELISA method (Coulter, Hialeah, Fla.); the same method was also used to quantify the extracellular level of p24 antigen that had accumulated in the supernatant during incubation with the hypusine inhibitors. In addition, titration assays were performed using CEM target cells to measure the infectivity of virus produced in the absence and presence of the hypusine inhibitors using the procedure of Prince et al., Proc. Natl. Acad. Sci. USA 85, 6944-6948 (1988), which is hereby incorporated by reference. The half-maximal tissue culture infectious doses (TCID50) of HIV-1 per ml of test sample were calculated by the Spearman-Karber method.

The test system of data set [2] is uninfected parent cell line CEM. Put plainly: Cell membrane integrity / viability, uninfected parent cells. To be noted: incubation and withdrawal, FIG. 12B. It counts as cell-based, human. On the procedure: FIGS. 12A and B show the loss of cell membrane integrity suffered by HIV-1 producing ACH-2 cells and their uninfected parent cell line CEM during incubation with and after withdrawal of mimosine and HK-1. The black bar indicates the duration of inhibitor exposure, the open bar the duration of inhibitor withdrawal. Cell membrane integrity was determined by the ability of the cells to exclude the low-molecular weight dye trypan blue (FIGS. 12A and B) and to retain the spermidine-derived radioactive label of a single, obligatory intracellular protein species, eIF-5A and its deoxyhypusyl precursor (FIG. 12A).
ACH-2 cells were incubated with hypusine inhibitors (mimosine, HK-1) and induced with PMA as outlined in Example II A, except that the duration of exposure to inhibitor was extended to 18-21 hours and that cells were labeled as detailed in Example I B. Half of the cells were then harvested and processed for detection of apoptosis, while the other half was washed free of inhibitors and re-incubated in fresh medium for 2-4 hours, followed by harvesting and processing for detection of […] apoptosis. Using the same protocol, cultures of the parent CEM cell line were incubated in parallel. […]

Data set [3] deals with viral p24 antigen, ACH-2 cells. The data set can be described thus: p24 antigen levels (ELISA) in PMA-induced ACH-2 cells. It counts as cell-based, HIV-1. To be noted: 200 μM, PMA-induced ACH-2, FIG. 10. The method, then:
142, 431-438 (1989), which is hereby incorporated by reference]. However, vigorous HIV-1 production by ACH-2 cells is induced by addition of the phorbol ester PMA [Pomerantz et al., Cell 61, 1271-1276 (1990) and Michael et al., J. Virol 65, 1291-1303 (1991), which are hereby incorporated by reference]. This system was selected for these experiments. Logarithmically growing ACH-2 cells, suspended at a concentration of 3×10^5 /ml, were incubated with the hypusine inhibitors mimosine and HK-1 at a final concentration of 200 μM. After 8 hours, viral replication was activated by addition of PMA to these cells and to untreated controls (100 ng/ml final PMA concentration). […] An aliquot of each fraction was analyzed by slot blotting, using the pXC-1 genomic ribosomal DNA probe from rat containing the 18S rRNA coding sequence [Rimarachin, Szabo et al., In Vitro 28A, 705-707 (1992), which is hereby incorporated by reference], to determine the location within the gradient of 18S rRNA, i.e., the distribution of polysomes vs. monosomes. […] Following electrophoresis, the radio-labeled PCR products were visualized by autoradiography according to routine techniques, and the band intensities quantified by densitometric analysis and expressed relative to total product per gradient. […]
(In general: ELISA stands for enzyme-linked immunosorbent assay.)

On to `Cc1c(O)c(=O)ccn1C` [HK-1, 1,2-dimethyl-3-hydroxypyrid-4-one], for which the “intra- and extracellular p24 antigen levels” value in data set [1] is “inhibitory effect on the extracellular (FIG. 9A) and intracellular (FIG. 9B) levels of the p24 antigen”. The “cell membrane integrity / viability, uninfected CEM” value in data set [2] is “no such loss of membrane integrity was noted”. For the same compound, the “viral p24 antigen in cells and supernatant” value in data set [3] was “suppressive effect”.
As to `N[C@@H](Cn1ccc(=O)c(O)c1)C(=O)O` [L-Mimosine], the “intra- and extracellular p24 antigen levels” value in data set [1] was “inhibitory effect on the intracellular (FIG. 8A) and extracellular (FIG. 8B) levels of the p24 antigen”. Besides, the “cell membrane integrity / viability, uninfected CEM” value in data set [2] is “no such loss of membrane integrity was noted”. Moreover, the “viral p24 antigen in cells and supernatant” value in data set [3] was “suppressive effect”.

The values are drawn from patent US5849587A, “Method of inhibiting viral replication in eukaryotic cells and of inducing apoptosis of virally-infected cells” (Cornell Research Foundation, Inc., priority 1995, dated 1998).
